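Values below derive from 48-hour exposures of cells grown in 96-well plates, with endpoints linearly interpolated between the two concentrations bracketing the appropriate inhibition level. TGI: total growth inhibition.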
Tests used:
Assay in all cases: NCI tumour cell line growth inhibition, 48 h
K-562 leukemia = test system: K-562 leukemia
A498 renal = test system: A498 renal
ACHN renal = test system: ACHN renal
M14 melanoma = test system: M14 melanoma
HOP-18 NSCLC = test system: HOP-18 NSCLC
LOX IMVI melanoma = test system: LOX IMVI melanoma
U251 CNS = test system: U251 CNS
786-0 renal = test system: 786-0 renal
NCI-H522 lung = test system: NCI-H522 lung
A549 NSCLC = test system: A549 NSCLC
LXFL 529 NSCLC = test system: LXFL 529 NSCLC
UACC-62 melanoma = test system: UACC-62 melanoma
KM12 colon = test system: KM12 colon
DLD-1 colon = test system: DLD-1 colon
SK-OV-3 ovarian = test system: SK-OV-3 ovarian
CAKI-1 renal = test system: CAKI-1 renal
SF-295 CNS = test system: SF-295 CNS
HT29 colon = test system: HT29 colon
HOP-92 NSCLC = test system: HOP-92 NSCLC
SF-539 CNS = test system: SF-539 CNS
CCRF-CEM leukemia = test system: CCRF-CEM leukemia
EKVX NSCLC = test system: EKVX NSCLC
RXF-631 renal = test system: RXF-631 renal
SK-MEL-2 melanoma = test system: SK-MEL-2 melanoma
KM20L2 colon = test system: KM20L2 colon
SF-268 CNS = test system: SF-268 CNS
MOLT-4 leukemia = test system: MOLT-4 leukemia
HL-60(TB) leukemia = test system: HL-60(TB) leukemia
HOP-62 NSCLC = test system: HOP-62 NSCLC
UO-31 renal = test system: UO-31 renal
HCT-116 colon = test system: HCT-116 colon
NCI-H460 lung = test system: NCI-H460 lung
OVCAR-8 ovarian = test system: OVCAR-8 ovarian
SN12C renal = test system: SN12C renal
NCI-H23 lung = test system: NCI-H23 lung
OVCAR-4 ovarian = test system: OVCAR-4 ovarian
SW-620 colon = test system: SW-620 colon
SNB-75 CNS = test system: SNB-75 CNS
HCC-2998 colon = test system: HCC-2998 colon
UACC-257 melanoma = test system: UACC-257 melanoma
SK-MEL-28 melanoma = test system: SK-MEL-28 melanoma
NCI-H226 lung = test system: NCI-H226 lung
TK-10 renal = test system: TK-10 renal
MALME-3M melanoma = test system: MALME-3M melanoma
SNB-19 CNS = test system: SNB-19 CNS
M19-MEL melanoma = test system: M19-MEL melanoma
SR leukemia = test system: SR leukemia
HCT-15 colon = test system: HCT-15 colon
RPMI-8226 leukemia = test system: RPMI-8226 leukemia
DMS 114 small cell lung = test system: DMS 114 small cell lung
IGROV1 ovarian = test system: IGROV1 ovarian
SNB-78 CNS = test system: SNB-78 CNS
COLO 205 colon = test system: COLO 205 colon
OVCAR-5 ovarian = test system: OVCAR-5 ovarian
DMS 273 small cell lung = test system: DMS 273 small cell lung
OVCAR-3 ovarian = test system: OVCAR-3 ovarian
RXF 393 renal = test system: RXF 393 renal
SK-MEL-5 melanoma = test system: SK-MEL-5 melanoma

In the case of CN/N=C(\C)c1c(O)cc(C)oc1=O, the TGI (K-562 leukemia) is reported as > 100 µM, the TGI (A498 renal) is reported as > 100 µM and the TGI (ACHN renal) is reported as > 100 µM. The TGI (M14 melanoma) was > 100 µM, the TGI (HOP-18 NSCLC) was > 100 µM and the TGI (LOX IMVI melanoma) was > 100 µM. For the same compound, the TGI (U251 CNS) was > 100 µM, the TGI (786-0 renal) was > 100 µM and the TGI (NCI-H522 lung) was > 100 µM. For the same compound, the TGI (A549 NSCLC) was > 100 µM, the TGI (LXFL 529 NSCLC) was > 100 µM and the TGI (UACC-62 melanoma) was > 100 µM. For the same compound, the TGI (KM12 colon) was > 100 µM, the TGI (DLD-1 colon) was > 100 µM and the TGI (SK-OV-3 ovarian) was > 100 µM. For the same compound, the TGI (CAKI-1 renal) was > 100 µM, the TGI (SF-295 CNS) was > 100 µM and the TGI (HT29 colon) was > 100 µM. The TGI (HOP-92 NSCLC) was > 100 µM, the TGI (SF-539 CNS) was > 100 µM and the TGI (CCRF-CEM leukemia) was > 100 µM. The TGI (EKVX NSCLC) was > 100 µM, the TGI (RXF-631 renal) was > 100 µM and the TGI (SK-MEL-2 melanoma) was > 100 µM. The TGI (KM20L2 colon) was > 100 µM, the TGI (SF-268 CNS) was > 100 µM and the TGI (MOLT-4 leukemia) was > 100 µM. For the same compound, the TGI (HL-60(TB) leukemia) was > 100 µM, the TGI (HOP-62 NSCLC) was > 100 µM and the TGI (UO-31 renal) was > 100 µM. For the same compound, the TGI (HCT-116 colon) was > 100 µM, the TGI (NCI-H460 lung) was > 100 µM and the TGI (OVCAR-8 ovarian) was > 100 µM. For the same compound, the TGI (SN12C renal) was > 100 µM, the TGI (NCI-H23 lung) was > 100 µM and the TGI (OVCAR-4 ovarian) was > 100 µM. The TGI (SW-620 colon) was > 100 µM, the TGI (SNB-75 CNS) was > 100 µM and the TGI (HCC-2998 colon) was > 100 µM. The TGI (UACC-257 melanoma) was > 100 µM, the TGI (SK-MEL-28 melanoma) was > 100 µM and the TGI (NCI-H226 lung) was > 100 µM. The TGI (TK-10 renal) was > 100 µM, the TGI (MALME-3M melanoma) was > 100 µM and the TGI (SNB-19 CNS) was > 100 µM. For the same compound, the TGI (M19-MEL melanoma) was > 100 µM, the TGI (SR leukemia) was > 100 µM and the TGI (HCT-15 colon) was > 100 µM.

Cc1ccc(NC(=O)SCCC(=O)O)cc1 was tested, and the TGI (K-562 leukemia) was > 100 µM, the TGI (RPMI-8226 leukemia) was > 100 µM and the TGI (A498 renal) was > 100 µM. The TGI (ACHN renal) was > 100 µM, the TGI (M14 melanoma) was > 100 µM and the TGI (LOX IMVI melanoma) was > 100 µM. The TGI (U251 CNS) was > 100 µM, the TGI (786-0 renal) was > 100 µM and the TGI (NCI-H522 lung) was > 100 µM. For the same compound, the TGI (A549 NSCLC) was > 100 µM, the TGI (LXFL 529 NSCLC) was > 100 µM and the TGI (UACC-62 melanoma) was > 100 µM. The TGI (DMS 114 small cell lung) was > 100 µM, the TGI (IGROV1 ovarian) was > 100 µM and the TGI (KM12 colon) was > 100 µM. For the same compound, the TGI (DLD-1 colon) was > 100 µM, the TGI (CAKI-1 renal) was > 100 µM and the TGI (SF-295 CNS) was > 100 µM. The TGI (HT29 colon) was > 100 µM, the TGI (SNB-78 CNS) was > 100 µM and the TGI (COLO 205 colon) was > 100 µM. For the same compound, the TGI (OVCAR-5 ovarian) was > 100 µM, the TGI (SF-539 CNS) was > 100 µM and the TGI (CCRF-CEM leukemia) was > 100 µM. The TGI (EKVX NSCLC) was > 100 µM, the TGI (RXF-631 renal) was > 100 µM and the TGI (SK-MEL-2 melanoma) was > 100 µM. The TGI (KM20L2 colon) was > 100 µM, the TGI (SF-268 CNS) was 94.9 µM and the TGI (MOLT-4 leukemia) was > 100 µM. The TGI (HL-60(TB) leukemia) was > 100 µM, the TGI (HOP-62 NSCLC) was > 100 µM and the TGI (UO-31 renal) was > 100 µM. For the same compound, the TGI (HCT-116 colon) was > 100 µM, the TGI (NCI-H460 lung) was > 100 µM and the TGI (OVCAR-8 ovarian) was > 100 µM. For the same compound, the TGI (SN12C renal) was > 100 µM, the TGI (NCI-H23 lung) was > 100 µM and the TGI (OVCAR-4 ovarian) was > 100 µM. For the same compound, the TGI (SW-620 colon) was > 100 µM, the TGI (SNB-75 CNS) was 66.7 µM and the TGI (HCC-2998 colon) was > 100 µM. For the same compound, the TGI (UACC-257 melanoma) was > 100 µM, the TGI (DMS 273 small cell lung) was > 100 µM and the TGI (SK-MEL-28 melanoma) was > 100 µM. For the same compound, the TGI (NCI-H226 lung) was > 100 µM, the TGI (TK-10 renal) was > 100 µM and the TGI (SNB-19 CNS) was > 100 µM. For the same compound, the TGI (OVCAR-3 ovarian) was > 100 µM, the TGI (SR leukemia) was > 100 µM and the TGI (HCT-15 colon) was > 100 µM. For the same compound, the TGI (RXF 393 renal) was > 100 µM.

In the case of COc1nc(NC2OCC(OC(C)=O)C(OC(C)=O)C2OC(C)=O)c(-c2csc(N)n2)c(=O)n1C (centres undefined), the TGI (K-562 leukemia) is reported as > 100 µM, the TGI (RPMI-8226 leukemia) is reported as > 100 µM and the TGI (A498 renal) is reported as > 100 µM. For the same compound, the TGI (ACHN renal) was > 100 µM, the TGI (M14 melanoma) was > 100 µM and the TGI (HOP-18 NSCLC) was > 100 µM. The TGI (LOX IMVI melanoma) was > 100 µM, the TGI (U251 CNS) was > 100 µM and the TGI (786-0 renal) was > 100 µM. For the same compound, the TGI (NCI-H522 lung) was > 100 µM, the TGI (A549 NSCLC) was > 100 µM and the TGI (LXFL 529 NSCLC) was > 100 µM. For the same compound, the TGI (UACC-62 melanoma) was > 100 µM, the TGI (DMS 114 small cell lung) was > 100 µM and the TGI (IGROV1 ovarian) was > 100 µM. For the same compound, the TGI (KM12 colon) was > 100 µM, the TGI (DLD-1 colon) was > 100 µM and the TGI (SK-OV-3 ovarian) was > 100 µM. The TGI (CAKI-1 renal) was > 100 µM, the TGI (SF-295 CNS) was > 100 µM and the TGI (HT29 colon) was > 100 µM. The TGI (SNB-78 CNS) was > 100 µM, the TGI (COLO 205 colon) was > 100 µM and the TGI (OVCAR-5 ovarian) was > 100 µM. The TGI (HOP-92 NSCLC) was > 100 µM, the TGI (SF-539 CNS) was > 100 µM and the TGI (CCRF-CEM leukemia) was > 100 µM. For the same compound, the TGI (RXF-631 renal) was > 100 µM, the TGI (SK-MEL-2 melanoma) was > 100 µM and the TGI (KM20L2 colon) was > 100 µM. The TGI (SF-268 CNS) was > 100 µM, the TGI (MOLT-4 leukemia) was > 100 µM and the TGI (HL-60(TB) leukemia) was > 100 µM. The TGI (HOP-62 NSCLC) was > 100 µM, the TGI (UO-31 renal) was > 100 µM and the TGI (HCT-116 colon) was > 100 µM. For the same compound, the TGI (NCI-H460 lung) was > 100 µM, the TGI (SK-MEL-5 melanoma) was > 100 µM and the TGI (OVCAR-8 ovarian) was > 100 µM. The TGI (SN12C renal) was > 100 µM, the TGI (NCI-H23 lung) was > 100 µM and the TGI (OVCAR-4 ovarian) was > 100 µM. For the same compound, the TGI (SW-620 colon) was > 100 µM, the TGI (SNB-75 CNS) was > 100 µM and the TGI (UACC-257 melanoma) was > 100 µM. The TGI (SK-MEL-28 melanoma) was > 100 µM, the TGI (NCI-H226 lung) was > 100 µM and the TGI (TK-10 renal) was > 100 µM. The TGI (MALME-3M melanoma) was > 100 µM, the TGI (SNB-19 CNS) was > 100 µM and the TGI (OVCAR-3 ovarian) was > 100 µM. The TGI (M19-MEL melanoma) was > 100 µM, the TGI (SR leukemia) was > 100 µM and the TGI (HCT-15 colon) was > 100 µM.
